We go through ten molecules from ChEMBL document CHEMBL1201862, “PubChem BioAssay data set” (2004).

Among the test systems are IGROV-1; 786-0; M14; NCI-H226; SF-295; HT-29; SR; MDA-N; PC-3; CAKI-1; U-251; HCT-116; OVCAR-3; TK-10; Malme-3M; HOP-92; MDA-MB-435; BT-549; HCT-15; OVCAR-4.
Assay in all cases: NCI anticancer screen, dose series, 48 h

Molecules are shown by their SMILES.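 1) Cells in 96-well plates. 2) Compound, 48 h, 5 concentrations. 3) Linear interpolation between surrounding doses. 4) Unreached endpoint = highest concentration. Abbreviation: GI50, concentration required for 50% inhibition of growth.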 Calls of active or inactive are those of the source. Rule as the data show it: active = GI50 up to about 1.1 µM and inactive = higher. A value given as a limit tells only on which side of the number the result lay.

`Cc1ccc(C(CC(=O)C(C)(C)CN2CCCCC2)SCCS(=O)(=O)O)cc1` (stereo not given): the GI50 with IGROV-1 was 33.9 µM (inactive); in the assay with 786-0, 26.2 µM (inactive); in the assay with M14 it was 23.8 µM (inactive); with NCI-H226, 30.7 µM (inactive); with SF-295, 15 µM (inactive); with HT-29, 24 µM (inactive). Also, the GI50 in the assay on SR is 12.2 µM (inactive); in the assay with MDA-N it was 31 µM (inactive); with PC-3, 34.4 µM (inactive); in the assay with CAKI-1, 22.3 µM (inactive); with U-251, 29.4 µM (inactive); in the assay on HCT-116, 22.3 µM (inactive). Also, the GI50 in the assay with OVCAR-3 is 15.5 µM (inactive); in the assay with TK-10, 25.9 µM (inactive); in the assay on Malme-3M, 26.4 µM (inactive); in the assay on HOP-92 it was 17.1 µM (inactive); with MDA-MB-435, 23.7 µM (inactive); with BT-549, 74.6 µM (inactive). In addition, the results for the GI50 in the assay with HCT-15 and in the assay with OVCAR-4 were 22.6 µM and 31.6 µM (inactive), respectively.

With `O=C1c2cc([N+](=O)[O-])sc2C(=O)c2ccsc21`, the GI50 in the assay with IGROV-1 is 0.413 µM (active); in the assay with 786-0, 0.449 µM (active); with M14, 0.258 µM (active); with NCI-H226, 1.36 µM (inactive); with SF-295, 0.354 µM (active); in the assay on HT-29, 0.665 µM (active). The GI50 in the assay on SR was < 0.0129 µM (active); in the assay on MDA-N, 0.191 µM (active); in the assay on PC-3 it was 0.532 µM (active); in the assay on CAKI-1, 1.24 µM (inactive); in the assay with U-251, 0.203 µM (active); in the assay on HCT-116, 0.293 µM (active). For the same molecule, the GI50 with OVCAR-3 was 0.0392 µM (active); with TK-10, 0.774 µM (active); in the assay with Malme-3M, 0.164 µM (active); with HOP-92, 0.201 µM (active); with MDA-MB-435, 0.177 µM (active); with BT-549 it was 0.438 µM (active). The GI50 is 0.284 µM with HCT-15 and 0.48 µM (active) in the assay with OVCAR-4.

Consider `CCCCCC(=O)OC[n+]1ccc(-c2c(COC(=O)NC(C)C)c(COC(=O)NC(C)C)c3n2CCC3)cc1`, for which the GI50 is > 100 µM (inactive) in the assay with IGROV-1; > 92 µM (inactive) with 786-0; > 100 µM (inactive) in the assay with M14; > 100 µM (inactive) in the assay with NCI-H226; > 100 µM (inactive) in the assay on SF-295; > 100 µM (inactive) with HT-29. Further, the GI50 in the assay on SR was 16.9 µM (inactive); with MDA-N, > 100 µM (inactive); in the assay on PC-3, > 100 µM (inactive); in the assay with CAKI-1 it was 49.5 µM (inactive); in the assay on U-251, > 100 µM (inactive); in the assay on HCT-116 it was > 100 µM (inactive). The GI50 in the assay on OVCAR-3, in the assay on TK-10, in the assay with Malme-3M, in the assay on HOP-92, in the assay on MDA-MB-435 and in the assay with BT-549 was > 100 µM (inactive) in each case. In addition, the GI50 in the assay on HCT-15 was over 100 µM; in the assay on OVCAR-4, > 100 µM (inactive).

Turning to `CSC(=S)N/N=C/c1ccccc1`, the GI50 in the assay on IGROV-1 is 22.3 µM (inactive); with 786-0 it was 39.4 µM (inactive); in the assay with M14, 29.4 µM (inactive); with NCI-H226, 40.6 µM (inactive); with SF-295 it was 39.2 µM (inactive); with HT-29 it was 33 µM (inactive). For the same molecule, the GI50 is 40.8 µM (inactive) in the assay with SR; 41.9 µM (inactive) in the assay on MDA-N; 97.9 µM (inactive) in the assay with PC-3; 24.5 µM (inactive) in the assay with CAKI-1; 52.6 µM (inactive) in the assay on U-251; 29.6 µM (inactive) in the assay with HCT-116. For the same molecule, the GI50 with OVCAR-3 was 42 µM (inactive); in the assay with TK-10, > 100 µM (inactive); with Malme-3M, 36.5 µM (inactive); in the assay with HOP-92, 26.9 µM (inactive); with MDA-MB-435, 47.4 µM (inactive); with BT-549, 46.3 µM (inactive). The figures for the GI50 in the assay with HCT-15 and with OVCAR-4 were 34.4 µM and 24.3 µM (inactive), respectively.

In the case of `C/C(=N\NC(N)=S)C(CN1CCCCC1)C(C1=C(O)c2ccccc2OC1)c1ccccc1` (stereo not given), the GI50 in the assay with IGROV-1, in the assay with 786-0, in the assay on M14, in the assay with NCI-H226, with SF-295 and in the assay with HT-29 was > 100 µM (inactive) in each case. The GI50 in the assay on SR, with MDA-N, with PC-3, in the assay with CAKI-1, in the assay with U-251 and with HCT-116 was > 100 µM (inactive) each time. For the same molecule, the GI50 in the assay on OVCAR-3 is 82.4 µM (inactive); in the assay with TK-10, > 100 µM (inactive); in the assay on Malme-3M, > 100 µM (inactive); with HOP-92, 22.5 µM (inactive); in the assay on MDA-MB-435 it was > 100 µM (inactive); in the assay on BT-549 it was > 100 µM (inactive). For the same molecule, the results for the GI50 in the assay on HCT-15 and in the assay with OVCAR-4 were over 100 µM and 83 µM (inactive), respectively.

Regarding `CCOC(=O)C12CC(C)=C(C)CC1CCCc1ccccc12` (stereo not given), the GI50 in the assay with IGROV-1 is 26.4 µM (inactive); with 786-0 it was 31.5 µM (inactive); in the assay on M14, 30.3 µM (inactive); in the assay with NCI-H226, 24.5 µM (inactive); with SF-295 it was 25.1 µM (inactive); with HT-29 it was 16.9 µM (inactive). For the same molecule, the GI50 was 23.8 µM (inactive) in the assay on SR; 26 µM (inactive) in the assay with MDA-N; 18.1 µM (inactive) with PC-3; 31.1 µM (inactive) in the assay on CAKI-1; 18.4 µM (inactive) in the assay with U-251; 14.7 µM (inactive) in the assay with HCT-116. In addition, the GI50 is 17.5 µM (inactive) in the assay on OVCAR-3; 27 µM (inactive) in the assay on TK-10; 23 µM (inactive) with Malme-3M; 13.5 µM (inactive) with HOP-92; 27.2 µM (inactive) in the assay on MDA-MB-435; 43.3 µM (inactive) with BT-549. For the same molecule, the figures for the GI50 with HCT-15 and in the assay on OVCAR-4 were 22.3 µM and 32.5 µM (inactive), respectively.

In the case of `CCN(CC)CCNc1ccc2ncn3c4ccc(O)cc4c(=O)c1c23`, the GI50 in the assay with IGROV-1 was 0.479 µM (active); in the assay on 786-0 it was 0.459 µM (active); in the assay with M14, 1.28 µM (inactive); with NCI-H226, 0.04 µM (active); in the assay with SF-295, 0.216 µM (active); in the assay on HT-29 it was 0.679 µM (active). The GI50 in the assay with SR is < 0.01 µM (active); in the assay with MDA-N, 4.19 µM (inactive); with PC-3 it was 1.49 µM (inactive); with CAKI-1, 0.0649 µM (active); with U-251 it was 0.193 µM (active); with HCT-116, 0.212 µM (active). In addition, the GI50 is 3.55 µM (inactive) with OVCAR-3; 3.2 µM (inactive) in the assay on TK-10; 1.48 µM (inactive) in the assay on Malme-3M; 0.434 µM (active) in the assay on HOP-92; 3.67 µM (inactive) in the assay with MDA-MB-435; 12 µM (inactive) in the assay on BT-549. For the same molecule, the GI50 was 0.214 µM in the assay on HCT-15 and 1.28 µM (inactive) with OVCAR-4.

For the molecule `CN1N(c2ccccc2)C(=O)C2=NC=C(C(=O)c3ccccc3)C(=N)C21C` (stereo not given), the GI50 with IGROV-1, with 786-0, with M14, with NCI-H226, with SF-295 and in the assay on HT-29 was > 100 µM (inactive) in each case. For the same molecule, the GI50 with SR, in the assay on MDA-N, in the assay with PC-3, in the assay on CAKI-1, in the assay on U-251 and in the assay on HCT-116 was > 100 µM (inactive) each time. Further, the GI50 with OVCAR-3, with TK-10, in the assay with Malme-3M, in the assay on HOP-92, in the assay with MDA-MB-435 and in the assay on BT-549 was > 100 µM (inactive) throughout. The GI50 was over 100 µM with HCT-15 and > 100 µM (inactive) in the assay on OVCAR-4.

Consider `COc1ccc2nc3c([N+](=O)[O-])ccc4c3c(c2c1)N(CCCN(C)C)C(=S)N4CCCN(C)C`, for which the GI50 in the assay with IGROV-1 was 2.97 µM (inactive); with 786-0 it was 2.78 µM (inactive); in the assay on M14, 4 µM (inactive); in the assay on NCI-H226, 7.48 µM (inactive); in the assay on SF-295, 4.6 µM (inactive); with HT-29 it was 2.22 µM (inactive). Further, the GI50 was 1.72 µM (inactive) with SR; 8.13 µM (inactive) with MDA-N; 3.73 µM (inactive) in the assay with PC-3; 14.5 µM (inactive) in the assay with CAKI-1; 6.37 µM (inactive) in the assay on U-251; 2.1 µM (inactive) with HCT-116. Besides, the GI50 is 6.04 µM (inactive) in the assay on OVCAR-3; 7.4 µM (inactive) in the assay with TK-10; 2.65 µM (inactive) in the assay with Malme-3M; 4.79 µM (inactive) in the assay with HOP-92; 5.74 µM (inactive) in the assay with MDA-MB-435; 11.8 µM (inactive) in the assay on BT-549. Also, the GI50 with HCT-15 is 3.4 µM; in the assay on OVCAR-4 it was 8.05 µM (inactive).

With `CC(NC(NC(C)C12CC3CC(CC(C3)C1)C2)=C(C(Cl)=C(Cl)Cl)[N+](=O)[O-])C12CC3CC(CC(C3)C1)C2` (stereo not given), the GI50 in the assay on IGROV-1 is 8.02 µM (inactive); in the assay on 786-0, 13 µM (inactive); with M14, 16.4 µM (inactive); in the assay on NCI-H226 it was > 26.2 µM (inactive); in the assay with SF-295, 24.9 µM (inactive); in the assay with HT-29 it was 4.62 µM (inactive). The GI50 is 3.9 µM (inactive) in the assay on SR; 22.7 µM (inactive) in the assay with MDA-N; 8.3 µM (inactive) in the assay with PC-3; 16.9 µM (inactive) in the assay on CAKI-1; 3.38 µM (inactive) in the assay on U-251; 9.04 µM (inactive) in the assay with HCT-116. Moreover, the GI50 is 9.71 µM (inactive) with OVCAR-3; 33.3 µM (inactive) with TK-10; 26.7 µM (inactive) in the assay with Malme-3M; 3.58 µM (inactive) with HOP-92; 27.2 µM (inactive) in the assay with MDA-MB-435; 24 µM (inactive) in the assay with BT-549. For the same molecule, the results for the GI50 in the assay on HCT-15 and with OVCAR-4 were 18.7 µM and 8.3 µM (inactive), respectively.
